Results taken from US20110034472A1, “Novel Compounds for Treatment of Cancer and Disorders Associated With Angiogenesis Function” (UNIVERSITY OF SOUTHERN CALIFORNIA, priority 2004, published 2011).

Key:
[1] = test system: MDA-MB-435 cells; assay: MTT assay, continuous drug exposure for 48 hours (Table 3); type: cell-based, human; details: Homo sapiens; for CC50: MDA-MB-435; for IC80: MDA-MB-435, read-out: CC80
[2] = drugs with known mechanisms of cell cycle regulation; cited from earlier work
[3] = test system: HEY ovarian cancer cells; assay: MTT cytotoxicity assay, HEY; type: cell-based, human; details: Homo sapiens; HEY; 72 hours continuous exposure; read-out: IC50 values (mean ± SD)
Procedure: (§1) The sensitivity of a panel of seven human cancer cell lines to SC144 was assessed by MTT-assay. […] The sensitivity towards SC144 was time- and dose-dependent.
(§2) Cytotoxicity was assessed by a 3-(4,5-dimethylthiazol-2-yl)-2,5-diphenyltetrazolium bromide assay as previously described (Carmichael et al. (1987) Cancer Res. 47:936-42). Briefly, cells were seeded in 96-well microtiter plates (PC3 and DU145 at 5,000 cells/well and LNCaP at 10,000 cells/well; breast and ovarian cells at 4,000 cells/well) and allowed to attach. Cells were subsequently treated with a continuous exposure to the corresponding drug for 72 hours. A 3-(4,5-dimethylthiazol-2-yl)-2,5-diphenyltetrazolium bromide solution (at a final concentration of 0.5 mg/mL) was added to each well and cells were incubated for 4 hours at 37° C. After removal of the medium, DMSO was added and the absorbance was read at 570 nm. All assays were done in triplicate. The IC50 was then determined for each drug from a plot of log(drug concentration) versus percentage of cell kill.

[4] = test system: MDA-MB-435 breast cancer cells; assay: MTT cytotoxicity assay, MDA-MB-435; type: cell-based, human; details: Homo sapiens, 72 hours continuous exposure, read-out: IC50 values (mean ± SD)
Procedure: as §1, §2
(§3) Cytotoxicity was assessed by a 3-(4,5-dimethylthiazol-2-yl)-2,5-diphenyltetrazolium bromide (MTT) assay as previously described.^9 Briefly, cells were seeded in 96-well microtiter plates and allowed to attach. Cells were subsequently treated with continuous exposure to the corresponding drug for 72 h. An MTT solution (at a final concentration of 0.5 mg/mL) was added to each well, and cells were incubated for 4 h at 37° C. After removal of the medium, DMSO was added and the absorbance was read at 570 nm. All assays were done in triplicate. The IC50 was then determined for each drug from a plot of log (drug concentration) versus percentage of cells killed.

[5] = test system: PC3 and DU145 cells; assay: Apoptosis by sub-G0/G1 population (flow cytometry); type: cell-based, human; details: IC80 dose for 72 hours
Procedure: Apoptotic cell population increased with time in PC3 and DU145 treated with SC21 and CPT.
SC21 and CPT-induced apoptosis was measured by flow cytometry (FIG. 18). SC21 at an IC80 dose for 72 hours induced 12% to 15% apoptosis as measured by calculating sub-G0/G1 population. […] An early event in apoptotic cell death is the translocation of the phosphatidyl-serine residues to the outer region of the cell membrane. This event precedes nuclear breakdown, DNA fragmentation, the appearance of most apoptosis-associated molecules, and is readily measured by annexin V binding assay. By this method, we compared SC21 with CPT.

[6] = test system: LNCaP prostate cancer cells; assay: MTT cytotoxicity assay, LNCaP; type: cell-based; details: Homo sapiens, 72 hours continuous exposure, read-out: IC50 values (mean ± SD)
Procedure: as §2, §3

[7] = test system: DU145 cells; assay: Annexin V/propidium iodide apoptosis assay, DU145; type: cell-based, human; details: 72 hours exposure, IC80
Procedure: FIG. 19 illustrates apoptosis analysis of DU145 cells treated with SC21 or CPT (IC80). Cells were treated with SC21 or CPT for 24, 48, and 72 h, harvested, stained with annexin V/propidium iodide and analyzed by flow cytometry. Untreated control cells (24 and 48 h) were also included in the analysis. Annexin VFITC signals are recorded in FL1-H or […] and propidium iodide in FL2-H or […]. Cells in the bottom left quadrant (annexin V-negative, propidium iodide-negative) are viable, whereas cells in the right quadrant (annexin V-positive, propidium iodide-negative) are in the early stages of apoptosis, and the cells in the top right quadrant (annexin V-positive, propidium iodide-positive) are in later stages of apoptosis and necrosis.
To quantify drug-induced apoptosis, annexin V/propidium iodide staining was done followed by flow cytometry. […] The resulting fluorescence (FLH-1 channel for green fluorescence and FLH-2 channel for red fluorescence) was measured by flow cytometry using a FACScan flow cytometer (Becton Dickinson).
SC21 and CPT-induced apoptosis was measured by flow cytometry (FIG. 18). SC21 at an IC80 dose for 72 hours induced 12% to 15% apoptosis as measured by calculating sub-G0/G1 population. […] This event precedes nuclear breakdown, DNA fragmentation, the appearance of most apoptosis-associated molecules, and is readily measured by annexin V binding assay. […]

[8] = test system: DU145 prostate cancer cells; assay: MTT cytotoxicity assay, DU145; type: cell-based; details: Homo sapiens, DU-145, 72 hours continuous exposure, read-out: IC50 values (mean ± SD)
Procedure: as §1, §2

[9] = test system: MCF-7 breast cancer cells; assay: MTT cytotoxicity assay, MCF-7; type: cell-based, human; details: Homo sapiens, MCF7; MCF-7; 72 hours continuous exposure; read-out: IC50 values (mean ± SD)
Procedure: as §1, §2

[10] = test system: PC3 prostate cancer cells; assay: MTT cytotoxicity assay, PC3; type: cell-based; details: Homo sapiens; PC3; 72 hours continuous exposure; read-out: IC50 values (mean ± SD)
Procedure: as §1, §2

[11] = test system: MDA-MB-435 cells; assay: Annexin V/PI apoptosis analysis, SC144 and CPT; type: cell-based, human; details: 48 h; IC80
From the text: Cells were stained with annexin V/PI and analyzed by flow cytometry. Cells in the bottom left quadrant of each panel (Annexin V-negative, PI-negative) are viable, whereas cells in the bottom right quadrant (Annexin V-positive, PI-negative) are in the early stages of apoptosis, and cells in the top right quadrant (Annexin V-positive, PI-positive) are in later stages of apoptosis and necrosis.
An early event in apoptotic cell death is the translocation of the phosphatidyl-serine residues to the outer part of the cell membrane. This event precedes nuclear breakdown, DNA fragmentation, the appearance of most apoptosis-associated molecules, and is readily measured by annexin V binding assay. By this method, SC144 was compared with CPT.

[12] = test system: MDA-MB-468 breast cancer cells; assay: MTT cytotoxicity assay, MDA-MB-468; type: cell-based; details: Homo sapiens, 72 hours continuous exposure, read-out: IC50 values (mean ± SD)
Procedure: as §1, §2

Row | Compound | CC50 [1] | IC80 [1] | Cell cycle profile [2] | IC50 [3] | IC50 [4] | apoptosis (sub-G0/G1 population) [5] | IC50 [6] | early plus late apoptotic cells [7] | IC50 [8] | IC50 [9] | IC50 [10] | early-apoptotic cells [11] | late-apoptosis/necrosis [11] | IC50 [12]
1 | O=c1[nH]cc(F)c(=O)[nH]1 [5-Fluorouracil] | 29 ± 10.7 µM | 100 ± 0.01 µM | S-phase |  |  |  |  |  |  |  |  |  |  | 
2 | CC[C@@]1(O)C(=O)OCc2c1cc1n(c2=O)Cc2cc3ccccc3nc2-1 [CPT, Camptothecin, reference compound] | 0.03 ± 0.002 µM | 0.1 ± 0.002 µM |  | 0.035 ± 0.007 µM | 0.027 ± 0.002 µM | 30% | 0.025 ± 0.006 µM | 59% | 0.025 ± 0.007 µM | 0.03 ± 0.003 µM | 0.9 ± 0.21 µM | 34% | 39% | 0.1 ± 0.002 µM
